Measured values reported in patent US11512097B2, “Heterocyclic compounds as Delta-5 desaturase inhibitors and methods of use” (Amgen Inc., priority 2019, dated 2022).

Each compound was assayed against T1, Delta-5-Desaturase (D5D), membrane preparations of D5D-overexpressing HEK293 6E cells (Homo sapiens, UniProt O60427) (assay: In vitro measurement of Delta-5-Desaturase inhibitory activity using DGLA-CoA and Arachidonyl-CoA mass spectrometric assays). Conditions: D5D membrane 10 μg/mL, one-hour incubation, average of at least two independent runs.
T1 construct: expressed in transfected cells; host or cells: HEK293 6E cells (membrane preparation)
Format: biochemical
Procedure: In Vitro Measurement of Delta-5-Desaturase Inhibitory Activity Using DGLA-CoA and Arachidonyl-CoA Mass Spectrometric Assays Membrane preparations of D5D-overexpressing HEK293 6E cells were prepared in which the total protein concentration was 5.6 mg/mL. Stock D5D membrane preparations were diluted in D5D assay buffer (25 mM 2-amino-2-(hydroxymethyl)-1,3-propanediol, pH 7.5 containing 10 mM MgCl2, 1 mM octyl glucoside (SigmaAldrich O-8001), 1 mM tris(2-carboxyethyl)phosphine hydrochloride (SigmaAldrich 646547)) to a final D5D membrane concentration of 10 μg/mL in an assay plate containing serially diluted test compounds. To 15 μL of this D5D preparation was added 15 μL of a substrate solution (0.25 mM NADH (nicotinamide adenine dinucleotide, Roche Diag. 10107735001), 0.25 mM adenosine triphosphate (SigmaAldrich A-3377), 0.05 mM coenzyme A hydrate (SigmaAldrich C-4282), and 0.01 mM DGLA (dihomo-g-linolenic acid, Sigma E-4504) in the same D5D assay buffer. After one-hour incubation at ambient temperature acetonitrile (30 μL) was added to quench the reaction and plates were centrifuged for 10 min @ 3,000 rpm. Mass spectrometric analysis involved a Rapidfire 360 SPE system coupled to an ABSciex API4000 Triple Quadrupole mass spectrometer using a C18 SPE cartridge (G9203-80105) with ionization in negative mode (solvent A=100% water; solvent B=100% acetonitrile, each solvent containing 5 mM ammonium acetate). DGLA-CoA and Arachidonyl-CoA were detected by multiple reaction monitoring (MRM) of the doubly charged parent ions at m/z 526.6 and 525.6, respectively. […] Sx is value from unknown sample, So is value from DMSO alone and Sc is value from no enzyme well. For CRC analysis, the % of inhibitions were analysed with 4 Parameter Logistic Model or Sigmoidal Dose-Response Model using XLfit (IDBS, Guilford, UK). The potency of the test item was expressed as IC50 nM, corresponding to the test item concentration able to inhibit the 50% of the enzyme maximal response. IC50 values were averaged values determined by at least two independent runs. The results presented in Table 15 have been generated with the in vitro assay described above. This assay may be used to test any of the compounds described herein to assess and characterize a compound's ability to inhibit D5D.

T1 sequence (O60427 whole entry, species assumed): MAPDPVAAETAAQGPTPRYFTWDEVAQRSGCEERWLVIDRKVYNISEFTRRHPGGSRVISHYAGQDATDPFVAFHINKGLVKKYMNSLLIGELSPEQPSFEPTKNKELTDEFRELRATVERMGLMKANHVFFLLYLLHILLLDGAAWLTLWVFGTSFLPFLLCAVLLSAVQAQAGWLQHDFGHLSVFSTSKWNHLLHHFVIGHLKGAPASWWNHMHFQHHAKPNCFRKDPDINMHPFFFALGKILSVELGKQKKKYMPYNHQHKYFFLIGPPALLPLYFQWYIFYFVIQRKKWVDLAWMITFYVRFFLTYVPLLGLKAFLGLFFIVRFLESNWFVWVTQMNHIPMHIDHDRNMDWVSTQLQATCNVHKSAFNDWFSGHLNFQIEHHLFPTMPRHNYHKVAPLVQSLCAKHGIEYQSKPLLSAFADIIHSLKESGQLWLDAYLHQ

Row | SMILES | IC50 [nM]
1 | Cc1nn2c(=O)c(-c3cnn(CC4CC(F)(F)C4)c3)c(C(F)(F)F)nc2s1 [Example 26, 6-{1-[(3,3-difluorocyclobutyl)methyl]-1H-pyrazol-4-yl}-2-methyl-7-(trifluoromethyl)-5H-[1,3,4]thiadiazolo[3,2-a]pyrimidin-5-one] | 104
2 | Cc1cn2c(=O)c(-c3cnn(CCC(F)(F)F)c3)c(C(F)(F)F)nc2[nH]1 [Example 74, 2-methyl-7-(trifluoromethyl)-6-[1-(3,3,3-trifluoropropyl)-1H-pyrazol-4-yl]-1H,5H-imidazo[1,2-a]pyrimidin-5-one] | 4.7
3 | CN1C(=O)Cn2c1nc(C(F)(F)F)c(-c1cnn(CC(F)(F)C(F)(F)F)c1)c2=O [Example 3, 1-methyl-6-[1-(2,2,3,3,3-pentafluoropropyl)-1H-pyrazol-4-yl]-7-(trifluoromethyl)-1H,2H,3H,5H-imidazo[1,2-a]pyrimidine-2,5-dione] | 25.7
4 | O=c1c(-c2cnn(CC(F)(F)C(F)(F)F)c2)c(C(F)(F)F)nc2sc(Cl)cn12 [Example 9, 2-chloro-6-[1-(2,2,3,3,3-pentafluoropropyl)-1H-pyrazol-4-yl]-7-(trifluoromethyl)-5H-[1,3]thiazolo[3,2-a]pyrimidin-5-one] | 6.4
5 | C[C@@H]1Cn2c(nc(C(F)(F)F)c(-c3cnn(CC(F)(F)C(F)(F)F)c3)c2=O)S1 (single isomer, unassigned) [Example 114] | 49.4
6 | Cc1cn2c(=O)c(-c3cnn(C[C@@H]4CC4(F)F)c3)c(C(F)(F)F)nc2n1C (single isomer, unassigned) [Example 110] | 24.1
7 | Cc1cn2c(=O)c(-c3cnn(CC(F)(F)C(F)(F)F)c3)c(C(F)(F)F)nc2n1-c1cccc(Cl)n1 [Example 101, 1-(6-chloropyridin-2-yl)-2-methyl-6-[1-(2,2,3,3,3-pentafluoropropyl)-1H-pyrazol-4-yl]-7-(trifluoromethyl)-1H,5H-imidazo[1,2-a]pyrimidin-5-one] | 397
8 | COc1nn2c(=O)c(-c3cnn(CC(F)(F)C(F)(F)F)c3)c(C(F)(F)F)nc2s1 [Example 43, 2-methoxy-6-[1-(2,2,3,3,3-pentafluoropropyl)-1H-pyrazol-4-yl]-7-(trifluoromethyl)-5H-[1,3,4]thiadiazolo[3,2-a]pyrimidin-5-one] | 34
9 | O=c1c(-c2cnn(CCC(F)(F)F)c2)c(C(F)(F)F)nc2n1CCC2 [Example 21, 2-(trifluoromethyl)-3-[1-(3,3,3-trifluoropropyl)-1H-pyrazol-4-yl]-4H,6H,7H,8H-pyrrolo[1,2-a]pyrimidin-4-one] | 235
10 | Cc1cn2c(=O)c(-c3cnn(CC4CC(F)(F)C4)c3)c(C(F)(F)F)nc2n1C [Example 60, 6-{1-[(3,3-difluorocyclobutyl)methyl]-1H-pyrazol-4-yl}-1,2-dimethyl-7-(trifluoromethyl)-1H,5H-imidazo[1,2-a]pyrimidin-5-one] | 57.8
11 | O=c1c(-c2cnn(CCC(F)(F)F)c2)c(C(F)(F)F)nc2sc(C3CC3)nn12 [Example 12, 2-cyclopropyl-7-(trifluoromethyl)-6-[1-(3,3,3-trifluoropropyl)-1H-pyrazol-4-yl]-5H-[1,3,4]thiadiazolo[3,2-a]pyrimidin-5-one] | 248
12 | Cc1cn2c(=O)c(-c3ccc(OCC(F)(F)F)cc3)c(C(F)(F)F)nc2n1CCN(C)C [Example 69, 1-[2-(dimethylamino)ethyl]-2-methyl-6-[4-(2,2,2-trifluoroethoxy)phenyl]-7-(trifluoromethyl)-1H,5H-imidazo[1,2-a]pyrimidin-5-one] | 13500
13 | Cc1nn2c(=O)c(-c3ccc(OCC(F)(F)F)cc3)c(C(F)(F)F)nc2s1 [Example 40, 2-methyl-6-[4-(2,2,2-trifluoroethoxy)phenyl]-7-(trifluoromethyl)-5H-[1,3,4]thiadiazolo[3,2-a]pyrimidin-5-one] | 224
14 | O=c1c(-c2ccc(OCC(F)(F)F)cc2)c(C(F)(F)F)nc2sccn12 [Example 31, 6-[4-(2,2,2-trifluoroethoxy)phenyl]-7-(trifluoromethyl)-5H-[1,3]thiazolo[3,2-a]pyrimidin-5-one] | 2.3
15 | Cc1cn2c(=O)c(-c3cnn(CCC(F)(F)F)c3)c(C(F)(F)F)nc2n1C [Example 53, 1,2-dimethyl-7-(trifluoromethyl)-6-[1-(3,3,3-trifluoropropyl)-1H-pyrazol-4-yl]-1H,5H-imidazo[1,2-a]pyrimidin-5-one] | 6.4

Next, values leading:

Row | IC50 [nM] | SMILES
16 | 29.3 | Cc1cn2c(=O)c(-c3cnn(CC(F)(F)C(F)(F)F)c3)c(C(F)(F)F)nc2n1-c1cnn(C)c1 [Example 97, 2-methyl-1-(1-methyl-1H-pyrazol-4-yl)-6-[1-(2,2,3,3,3-pentafluoropropyl)-1H-pyrazol-4-yl]-7-(trifluoromethyl)-1H,5H-imidazo[1,2-a]pyrimidin-5-one]
17 | 193 | Cc1cn2c(=O)c(-c3cnn(CC(F)(F)C(F)(F)F)c3)c(C(F)(F)F)nc2n1CCN(C)C [Example 84, 1-[2-(dimethylamino)ethyl]-2-methyl-6-[1-(2,2,3,3,3-pentafluoropropyl)-1H-pyrazol-4-yl]-7-(trifluoromethyl)-1H,5H-imidazo[1,2-a]pyrimidin-5-one]
18 | 24 | [2H]C([2H])([2H])n1c(C)cn2c(=O)c(-c3cnn(CC(F)(F)C(F)(F)F)c3)c(C(F)(F)F)nc12 [Example 77, 1-(2H3)methyl-2-methyl-6-[1-(2,2,3,3,3-pentafluoropropyl)-1H-pyrazol-4-yl]-7-(trifluoromethyl)-1H,5H-imidazo[1,2-a]pyrimidin-5-one]
19 | 8400 | Cc1cn2c(=O)c(-c3cnn(CC(F)(F)C(F)(F)F)c3)c(C(F)(F)F)nc2n1-c1ccncc1 [Example 102, 2-methyl-6-[1-(2,2,3,3,3-pentafluoropropyl)-1H-pyrazol-4-yl]-1-(pyridin-4-yl)-7-(trifluoromethyl)-1H,5H-imidazo[1,2-a]pyrimidin-5-one]
20 | 53.3 | Cc1cn2c(=O)c(-c3cnn(CC(F)(F)C(F)(F)F)c3)c(C(F)(F)F)nc2n1CCC1(O)CC1 [Example 89, 1-[2-(1-hydroxycyclopropyl)ethyl]-2-methyl-6-[1-(2,2,3,3,3-pentafluoropropyl)-1H-pyrazol-4-yl]-7-(trifluoromethyl)-1H,5H-imidazo[1,2-a]pyrimidin-5-one]
21 | 2400 | Cc1cn2c(=O)c(-c3cnn(CC(F)(F)C(F)(F)F)c3)c(C(F)(F)F)nc2n1-c1cccnc1 [Example 98, 2-methyl-6-[1-(2,2,3,3,3-pentafluoropropyl)-1H-pyrazol-4-yl]-1-(pyridin-3-yl)-7-(trifluoromethyl)-1H,5H-imidazo[1,2-a]pyrimidin-5-one]
22 | 18.8 | Cc1cn2c(=O)c(-c3cnn(CC(F)(F)C(F)(F)F)c3)c(C(F)(F)F)nc2o1 [Example 39, 2-methyl-6-[1-(2,2,3,3,3-pentafluoropropyl)-1H-pyrazol-4-yl]-7-(trifluoromethyl)-5H-[1,3]oxazolo[3,2-a]pyrimidin-5-one]
23 | 3630 | Cc1cn(C)n2c(=O)c(-c3cnn(CC(F)(F)C(F)(F)F)c3)c(C(F)(F)F)nc12 [Example 18, 1,3-dimethyl-6-[1-(2,2,3,3,3-pentafluoropropyl)-1H-pyrazol-4-yl]-5-(trifluoromethyl)-1H,7H-pyrazolo[1,5-a]pyrimidin-7-one]
24 | 247 | Cc1cn2c(=O)c(-c3cnn(CC(F)(F)C(F)(F)F)c3)c(C(F)(F)F)nc2n1-c1cnccn1 [Example 95, 2-methyl-6-[1-(2,2,3,3,3-pentafluoropropyl)-1H-pyrazol-4-yl]-1-(pyrazin-2-yl)-7-(trifluoromethyl)-1H,5H-imidazo[1,2-a]pyrimidin-5-one]
25 | 35.7 | Cc1cn2c(=O)c(-c3cnn(CC(F)(F)C(F)(F)F)c3)c(C(F)(F)F)nc2[nH]1 [Example 73, 2-methyl-6-[1-(2,2,3,3,3-pentafluoropropyl)-1H-pyrazol-4-yl]-7-(trifluoromethyl)-1H,5H-imidazo[1,2-a]pyrimidin-5-one]
26 | 210 | COCc1cn2c(=O)c(-c3cnn(CC(F)(F)C(F)(F)F)c3)c(C(F)(F)F)nc2n1C [Example 55, 2-(methoxymethyl)-1-methyl-6-[1-(2,2,3,3,3-pentafluoropropyl)-1H-pyrazol-4-yl]-7-(trifluoromethyl)-1H,5H-imidazo[1,2-a]pyrimidin-5-one]
27 | 54.7 | COC(=O)n1c(C)cn2c(=O)c(-c3cnn(CC(F)(F)C(F)(F)F)c3)c(C(F)(F)F)nc12 [Example 80, methyl 2-methyl-5-oxo-6-[1-(2,2,3,3,3-pentafluoropropyl)-1H-pyrazol-4-yl]-7-(trifluoromethyl)-1H,5H-imidazo[1,2-a]pyrimidine-1-carboxylate]
